What all share (assay type): in vivo
The subject of one assay is eggplant young plants. The experiment in a line: Dwarfing test of eggplant young plant. Particulars: for Plant Height / Dwarfing Rate: 5 ml per cell on 7th day, measured 25th day; for Dwarfing Rate: vs comparative group. How it is done:
(§1) After seeding, the pot was placed in the same greenhouse as described above to sprout. Subsequently, on the 5th day, the cinnamic aqueous acid solutions were added to the nursery soil in the joint pots. One of the joint pots (24 cells) was prepared as a 0.05% cinnamic acid aqueous solution addition group, and 5 ml of the 0.05% cinnamic acid aqueous solution was added to the nursery soil of each cell. Another one of the join pots was prepared as a 0.2% cinnamic acid aqueous solution addition group, and 5 ml of the 0.2% cinnamic acid aqueous solution was added to the nursery soil of each cell. […] Subsequently, the cultivation of carrot young plants in each group was continued under general conditions. On the 27th day, the heights of young plants in each group were measured, the dwarfing rate (%) was calculated, and the dwarfing effect of cinnamic acid aqueous solution on carrot young plants was examined. From the results in Table 5, it became evident that the 0.05% and 0.2% cinnamic acid aqueous solutions are effective in dwarfing carrot young plants. In the same way as in Example 5 except that seeds of cauliflower were sowed, the cinnamic acid solutions were added to the nursery soil in the joint pot on the 4th day, and that heights of young plants in each group were measured on the 20th day, the dwarfing effect of cinnamic acid aqueous solution on cauliflower young plants was examined. From the results in Table 12, it became evident that the cinnamic acid aqueous solutions are effective in dwarfing cauliflower young plants. In the same way as in Example 12 except that seeds of tomato were sowed, and that the cinnamic acid solutions were added to the nursery soil of the joint pot on the 7th day, the dwarfing effect of cinnamic acid aqueous solution on tomato young plants was examined. From the results in Table 17, it became evident that the cinnamic acid aqueous solutions are effective in dwarfing tomato young plants. In the same way as in Example 17 except that seeds of eggplant were sowed, and that plant heights were measured on the 25th day, the dwarfing effect of cinnamic acid aqueous solution on eggplant young plants was examined. From the results in Table 19, it became evident that the cinnamic acid aqueous solutions are effective in dwarfing eggplant young plants.

The test system of another assay is watermelon young plants. Put plainly: Dwarfing test of watermelon young plant. Particulars: for Plant Height / Dwarfing Rate: 5 ml per cell on 7th day, measured 27th day; for Dwarfing Rate: vs comparative group. How it is done: as §1, with “watermelon” for “eggplant”, “27th” for “25th”, “21,” for “19,”
The next assay has as its system lettuce young plants. Put plainly: Dwarfing test of lettuce young plant. The following applies: for Plant Height / Dwarfing Rate: 5 ml per cell on 5th day, measured 20th day; for Dwarfing Rate: vs comparative group. How it is done: (§2) 50 g of sodium tripolyphosphate was dissolved in 400 ml of distilled water at 80° C., 17.5 g of cinnamic acid was added to the sodium tripolyphosphate solution and dissolved by stirring, the resultant solution was diluted with distilled water until the total volume of solution was 500 ml, and thus 3.5% cinnamic acid aqueous solution (pH 6.5) was prepared. The aqueous solution was further diluted with distilled water 70 times or 17.5 times, and 0.05% cinnamic acid aqueous solution and 0.2% cinnamic acid aqueous solution were prepared, respectively.
(§3) Nursery soil for house use was filled into paper joint pots (each with 24 cells: 34×43×50 mm/cell), water was sufficiently given to the soil, and seeds of carrots were sowed. After seeding, the pot was placed in the same greenhouse as described above to sprout. Subsequently, on the 5th day, the cinnamic aqueous acid solutions were added to the nursery soil in the joint pots. One of the joint pots (24 cells) was prepared as a 0.05% cinnamic acid aqueous solution addition group, and 5 ml of the 0.05% cinnamic acid aqueous solution was added to the nursery soil of each cell. Another one of the join pots was prepared as a 0.2% cinnamic acid aqueous solution addition group, and 5 ml of the 0.2% cinnamic acid aqueous solution was added to the nursery soil of each cell. The other one of the joint pots was prepared as a comparative group in which 5 ml of water is added to each cell, instead of the cinnamic acid aqueous solution. Subsequently, the cultivation of carrot young plants in each group was continued under general conditions. On the 27th day, the heights of young plants in each group were measured, the dwarfing rate (%) was calculated, and the dwarfing effect of cinnamic acid aqueous solution on carrot young plants was examined. […].
In the same way as in Example 5 except that seeds of lettuce were sowed, and that heights of young plants in each group were measured on the 20th day, the dwarfing effect of cinnamic acid aqueous solution on lettuce young plants was examined. […]

For the next assay, the system named is green onion young plants. The experiment in a line: Dwarfing test of green onion young plant. Particulars: for Plant Height / Dwarfing Rate: 5 ml per cell on 5th day, measured 27th day; for Dwarfing Rate: vs comparative group. The procedure:
as §2, §3
In the same way as in Example 5 except that seeds of green onion were sowed, the dwarfing effect of cinnamic acid aqueous solution on green onion young plants was examined. […]

On to `O=C(O)C=Cc1ccccc1` [cinnamic acid], for which the “Plant Height” value with eggplant young plants (0.05% aqueous solution) turned out to be 2.9 cm; with eggplant young plants (0.2% aqueous solution) it was 2.3 cm; with watermelon young plants (0.05% aqueous solution) it was 9.3 cm; in the assay with watermelon young plants (0.2% aqueous solution), 7.9 cm; in the assay on lettuce young plants (0.05% aqueous solution) it was 5.7 cm; in the assay with lettuce young plants (0.2% aqueous solution), 4.3 cm. For the same compound, the “Plant Height” value in the assay on green onion young plants (0.05% aqueous solution) stood at 7.2 cm; in the assay on green onion young plants (0.2% aqueous solution), 5.6 cm. Besides, the “Dwarfing Rate” value turned out to be 12.1% in the assay with eggplant young plants (0.05% aqueous solution); 30.3% in the assay on eggplant young plants (0.2% aqueous solution); 15.5% with watermelon young plants (0.05% aqueous solution); 28.2% with watermelon young plants (0.2% aqueous solution); 6.6% with lettuce young plants (0.05% aqueous solution); 29.5% in the assay on lettuce young plants (0.2% aqueous solution). Also, the figures for the “Dwarfing Rate” value with green onion young plants (0.05% aqueous solution) and in the assay with green onion young plants (0.2% aqueous solution) were 25.8% and 42.3%, respectively. Also, the dwarfing effect result with eggplant young plants (eggplant young plants, 0.05% and 0.2% aqueous solutions) is “effective”; in the assay with watermelon young plants (watermelon young plants, 0.05% and 0.2% aqueous solutions), “effective”; with lettuce young plants (lettuce young plants, 0.05% and 0.2% aqueous solutions), “effective”; with green onion young plants (green onion young plants, 0.05% and 0.2% aqueous solutions) it was “effective”.

The values above are taken from patent US20040200144A1, “Plant growth regulator and a method of producing the regulator” (Dainichiseika Color & Chemicals Mfg. Co., Ltd., priority 2003, published 2004).
